Experimental data taken from patent US7235679B2, “Crystals of a vitamin D derivative and a method for the preparation thereof” (Chugai Seiyaku Kabushiki Kaisha, priority 1996, dated 2007).

Assay: Stability test of ED-71: purity measurement using reverse phase HPLC
Assay type: physicochemical
Conditions: for Purity Measurement Using Reverse Phase HPLC, ED-71 peak / Purity Measurement Using Reverse Phase HPLC, Other peaks / Purity Measurement Using Reverse Phase HPLC, Pre Form peak: 265 nm
Method: Amorphous and crystalline ED-71 compounds were tested for stability at 10, 25 and […]. To estimate the stability, HPLC quantitative assay and absorbance and purity measurements were utilized. The purity was expressed as peak area ratio in percentage in HPLC (% P.A.R.). The test was carried out by using the following procedures:
About 2 mg portions of each of the amorphous and crystalline samples are precisely weighed into transparent 10 ml test tubes each having screw cap, individually.
The test tubes are purged with argon using a vacuum desiccator and a glove box. This purging procedure is not applied to the test tubes indicated as “1 M (air)” in the tables below.
The test tubes in groups are fixed in thermostatic baths which are respectively controlled at the above temperatures and allowed to stand in the dark. After one (1 W) or two (2 W) weeks or one month (1 M), the test tubes are removed from the baths and subjected to the following assay and measurements:
HPLC is carried out using 25 μl of the sample solution as prepared in “HPLC quantitative assay” above. • HPLC conditions used: • Column: Inertsil ODS-2 (5×250 mm) • Mobile phase: acetonitrile/water mixture (55/45) • Flow rate: 1 ml/min • Detection: at UV 265 and 220 nm.

## C=C1/C(=C\C=C2/CCC[C@@]3(C)C2CC[C@@H]3[C@H](C)CCCC(C)(C)O)C[C@@H](O)[C@@H](OCCCO)[C@@H]1O (stereo partly drawn) [Amor., 1α,25-dihydroxy-2β-(3-hydroxypropoxy)vitamin D3]
10° C., time 0
  220 nm (%), Other peaks: 4.70%
  220 nm (%), Pre Form peak: 1.37%
  Purity Measurement Using Reverse Phase HPLC, ED-71 peak: 95.38 % P.A.R
  Purity Measurement Using Reverse Phase HPLC, Other peaks: 3.47 % P.A.R
  Purity Measurement Using Reverse Phase HPLC, Pre Form peak: 1.16 % P.A.R
25° C., 1 W, argon, dark
  220 nm (%), ED-71 peak: 93.37%
  220 nm (%), Other peaks: 5.13%
  220 nm (%), Pre Form peak: 1.50%
  Purity Measurement Using Reverse Phase HPLC, ED-71 peak: 94.78 % P.A.R
  Purity Measurement Using Reverse Phase HPLC, Other peaks: 3.95 % P.A.R
  Purity Measurement Using Reverse Phase HPLC, Pre Form peak: 1.27 % P.A.R
25° C., 2 W, argon, dark
  220 nm (%), ED-71 peak: 92.39%
  220 nm (%), Other peaks: 5.68%
  220 nm (%), Pre Form peak: 1.93%
  Purity Measurement Using Reverse Phase HPLC, ED-71 peak: 94.20 % P.A.R
  Purity Measurement Using Reverse Phase HPLC, Other peaks: 4.08 % P.A.R
  Purity Measurement Using Reverse Phase HPLC, Pre Form peak: 1.72 % P.A.R
25° C., time 0
  220 nm (%), ED-71 peak: 93.95%
  220 nm (%), Other peaks: 4.70%
  220 nm (%), Pre Form peak: 1.37%
  Purity Measurement Using Reverse Phase HPLC, ED-71 peak: 95.38 % P.A.R
  Purity Measurement Using Reverse Phase HPLC, Other peaks: 3.47 % P.A.R
  Purity Measurement Using Reverse Phase HPLC, Pre Form peak: 1.16 % P.A.R
40° C., 1 W, argon, dark
  220 nm (%), ED-71 peak: 90.00%
  220 nm (%), Other peaks: 7.71%
  220 nm (%), Pre Form peak: 2.29%
  Purity Measurement Using Reverse Phase HPLC, ED-71 peak: 92.47 % P.A.R
  Purity Measurement Using Reverse Phase HPLC, Other peaks: 5.55 % P.A.R
  Purity Measurement Using Reverse Phase HPLC, Pre Form peak: 1.98 % P.A.R
40° C., 2 W, argon, dark
  220 nm (%), ED-71 peak: 87.40%
  220 nm (%), Other peaks: 9.72%
  220 nm (%), Pre Form peak: 2.88%
  Purity Measurement Using Reverse Phase HPLC, ED-71 peak: 90.68 % P.A.R
  Purity Measurement Using Reverse Phase HPLC, Other peaks: 6.78 % P.A.R
  Purity Measurement Using Reverse Phase HPLC, Pre Form peak: 2.53 % P.A.R
40° C., time 0
  220 nm (%), ED-71 peak: 93.95%
  220 nm (%), Other peaks: 4.70%
  220 nm (%), Pre Form peak: 1.37%
  Purity Measurement Using Reverse Phase HPLC, ED-71 peak: 95.38 % P.A.R
  Purity Measurement Using Reverse Phase HPLC, Other peaks: 3.47 % P.A.R
  Purity Measurement Using Reverse Phase HPLC, Pre Form peak: 1.16 % P.A.R
10° C., 1 M (air), dark
  Purity Measurement Using Reverse Phase HPLC, ED-71 peak: 94.11 % P.A.R
  Purity Measurement Using Reverse Phase HPLC, Other peaks: 4.07 % P.A.R
  Purity Measurement Using Reverse Phase HPLC, Pre Form peak: 1.82 % P.A.R
10° C., 1 M, argon, dark
  Purity Measurement Using Reverse Phase HPLC, ED-71 peak: 93.05 % P.A.R
  Purity Measurement Using Reverse Phase HPLC, Other peaks: 5.07 % P.A.R
  Purity Measurement Using Reverse Phase HPLC, Pre Form peak: 1.88 % P.A.R
10° C., 2 W, argon, dark
  Purity Measurement Using Reverse Phase HPLC, ED-71 peak: 94.48 % P.A.R
  Purity Measurement Using Reverse Phase HPLC, Other peaks: 3.77 % P.A.R
  Purity Measurement Using Reverse Phase HPLC, Pre Form peak: 1.75 % P.A.R
